Reference: a melting point compilation (Tetko et al.; mined from patent text by program, amines drawn as free bases though some values may be those of a salt)

Compound `O=C(O)c1ccc(NCc2ccc(F)cc2)cn1` has a melting point of 197 to 200 °C.
Compound `CC(=O)OC1CSC(Oc2ccc(-c3ccnc(F)c3)nc2Cl)C(OC(C)=O)C1OC(C)=O` (stereo not drawn) has a melting point of 226 °C.
For `CCOc1ccc(S(=O)(=O)N(Cc2ccc(C(=O)OC)cc2)[C@@H](CC)c2ccccc2)cc1`, the melting point was 102 to 104 °C.
With `CCCc1nc(C(C)(C)O)c(C(=O)O)n1Cc1ccc(-c2ccccc2-c2nnn[nH]2)cc1` the melting point was 166 to 169 °C.
`CCOC(=O)N=P(c1ccccc1)(c1ccccc1)c1ccccc1CN1CCCC1` showed a melting point of 120 to 122 °C.
Compound `O=C(NC[C@H]1CC[C@H](C(=O)O)CC1)OCc1ccccc1` has a melting point of 114 to 116 °C.
For `COc1cc2cc(C3CCCC3)sc2c(Cl)c1Cl`, the melting point was 59.5 to 60 °C.
In the case of `COc1cccc(S(=O)c2cccc(N)c2C#N)c1` (stereo not drawn), the melting point is reported as 110 to 114 °C.
Compound `O=S(=O)(Nc1cccc(I)c1)C(F)(F)F` has a melting point of 75 to 77 °C.
With `O=Cc1cc(Cl)cc(C(=O)O)c1O` the melting point was 218 °C.
`CCCCCNC(=O)[C@H](Cc1ccc(OCC(=O)O)c(-c2nn[nH]n2)c1)NC(=O)[C@H](Cc1ccccc1)NC(=O)OC(C)(C)C` gave a melting point of 121 to 123 °C.
Work on `Cc1ccc(C(=O)COc2cc(C)cc(C)c2C)cc1` yielded a melting point of 94 to 95 °C.
In the case of `CCC(=O)N1CCC(NC(=O)Nc2ccc(C(F)(F)F)cc2)CC1`, the melting point is reported as 224 to 228 °C.
Compound `COc1c(OCCOc2ccc(C(C)(C)C)cc2)ccnc1C` has a melting point of 84 to 87 °C.
In the case of `COC(=O)C1=C(C)NC(c2sc(C)nc2C)=NC1c1ccc(F)cc1Cl` (stereo not drawn), the melting point is reported as 116 to 118 °C.
`CC(C)(C)c1ocnc1C=C(O)C(=O)O` showed a melting point of 153 to 155 °C.
With `CCCCOC(=O)C(=C1SC=CS1)S(=O)(=O)C(C)C` the melting point was 67 to 69 °C.
In the case of `Cc1nsc(Br)c1S(N)(=O)=O`, the melting point is reported as 148 to 150 °C.
Work on `O=C(O)C=CC(=O)OC1CCN(C(=O)Cn2c(=O)sc3ccc(Cl)cc32)CC1` yielded a melting point of 197 to 198 °C.
`COC(=O)C1CC(=O)Nc2ccccc2C1` (stereo not drawn) showed a melting point of 114 to 115 °C.
Work on `CC#CNC(=C[N+](=O)[O-])NCCSCc1ccccn1` yielded a melting point of 147 to 148 °C.
For `COC(=O)C(O)NC(=O)OC(C)(C)C` (stereo not drawn), the melting point was 96 to 97 °C.
For `CC(=O)c1ccc(Cn2c3c(c4cc(F)cc(F)c42)CCCC3CC(=O)O)cc1` (stereo not drawn), the melting point was 163 to 164 °C.
In the case of `COc1cc(C(C)=O)ccc1OCCCN1CCC(C(O)(c2ccccc2)c2ccc(F)cc2)CC1` (stereo not drawn), the melting point is reported as 147 to 148 °C.
`O=C1NC(=O)C2(O1)C(=O)N(Cc1ccc(Cl)c(Cl)c1)c1c(F)cccc12` (stereo not drawn) gave a melting point of 101 to 102 °C.
In the case of `Fc1cncc(F)c1C1=NC(c2ccc(I)cc2)CO1` (stereo not drawn), the melting point is reported as 84 to 86 °C.
`CC(=O)N1CCC(C(=O)Nc2ccc(-n3nc(C(F)(F)F)cc3C(F)(F)F)cc2)CC1` showed a melting point of 94 to 95 °C.
For `Cc1cc(-c2ccc(S(C)=O)cc2)n(-c2ccc(S(N)(=O)=O)cc2)c1` (stereo not drawn), the melting point was 222 to 226 °C.
For `CCCc1nc2c(N)nc3cc(-c4cccc(C(=O)NC5CC5)c4)ccc3c2s1`, the melting point was 251 to 254 °C.
For `CS(=O)(=O)OCC(CC1CCCCC1)c1ccc(Cl)cc1Cl` (stereo not drawn), the melting point was 105 °C.
`O=C(O)c1cc(F)c(F)cc1Nc1ccnn1-c1ccccn1` gave a melting point of 242 to 245 °C.
In the case of `CC(=O)N(C)c1cc2c(nc(C)n2C)c(O)c1CN(C)C`, the melting point is reported as 181 to 184 °C.
For `Nc1nccc(-c2cn(-c3ccccc3)nc2-c2ccc(F)cc2)n1`, the melting point was 170 to 171 °C.
Compound `OCC=Cc1ccc(Br)cc1F` has a melting point of 38 to 40 °C.
`COC(=O)[C@H](Cc1c[nH]c2ccccc12)NC(=O)CCC(=O)[C@H](Cc1ccccc1)NC(=O)c1ccccc1` showed a melting point of 88 to 90 °C.
Compound `COc1ccc(C(O)c2cccnc2)cn1` (stereo not drawn) has a melting point of 129 to 130 °C.
`COc1ccnc(CCc2nc3cc(-c4cccs4)cnc3[nH]2)c1` gave a melting point of 132 to 133 °C.
For `Cc1cc(-c2cc(O)c(Cl)cc2F)c(=O)n(C)c1C(F)(F)F`, the melting point was 207 to 208 °C.
`N#CNC(=Nc1ccncc1)NCCCCCOc1ccccc1` showed a melting point of 188 to 189 °C.
`Cc1ccc(C(=O)NCc2ccc(O)c3ncccc23)cc1` showed a melting point of 137 to 139 °C.
For `COc1ccc(S(=O)(=O)NC(C)c2cc(F)ccc2-c2ccc(F)cc2F)c(OC)c1` (stereo not drawn), the melting point was 192 to 194 °C.
`O=C(O)C1(O)CCCN(Cc2ccccc2)C1` (stereo not drawn) showed a melting point of 104 °C.
`CC(=O)Nc1nc(=O)n(C(=O)c2ccc(C)cc2)cc1F` showed a melting point of 147 to 148 °C.
`Cc1ccc(Cc2cnc(NCCSCc3cccc(CN(C)C)c3)[nH]c2=O)cn1` showed a melting point of 122 to 125 °C.
Compound `Cc1cn(-c2nccc3[nH]c(=O)ccc23)cn1` has a melting point of 257 to 259 °C.
`COC(=O)C(=O)c1ccc(OCCOc2cc(OC)c(OC)c(OC)c2)cc1` gave a melting point of 82 to 83 °C.
`COc1cccc(Sc2ccnc(Nc3cc(OC)c(OC)c(OCCN4CCCC4)c3)n2)c1` showed a melting point of 120 to 121 °C.
Compound `CC(C)c1ccccc1-c1nc(-c2ccccc2)n[nH]1` has a melting point of 165 to 167 °C.
With `CN(C)Cc1c[nH]c2c(F)cccc12` the melting point was 133 to 137 °C.
`COc1ccccc1NC(=O)Cc1ccccc1` showed a melting point of 128 to 131 °C.
With `Cc1nccn1CCC(C(N)=O)(c1ccccc1)c1ccccc1` the melting point was 191 to 193 °C.
`O=C1c2ccccc2C(=O)N1CCCCN(CCCCN1C(=O)c2ccccc2C1=O)CCOc1cccc2c1SCCC2` showed a melting point of 66 °C.
Work on `CC(C)(C)OC(=O)NC(Cc1ccccc1)C(=O)OC(Cc1c[nH]cn1)C(=O)O` (stereo not drawn) yielded a melting point of 130 to 131 °C.
`CCC(NC(C)=O)c1ccc(Cl)c2nc3n(c12)CCCN3c1ccc(Cl)cc1Cl` (stereo not drawn) showed a melting point of 237 to 239 °C.
With `COc1ccc(F)cc1C(C)(C)CC(O)(Cn1cnc(=O)c2ccccc21)C(F)(F)F` (stereo not drawn) the melting point was 118 to 121 °C.
`CC(=O)O[C@H]1C=C(Br)C(=O)[C@@H]2O[C@H]12` gave a melting point of 93 to 94 °C.
`CCCC1=C(C(=O)OCC)C(c2ccccc2S(C)=O)c2c[nH]nc2N1` (stereo not drawn) showed a melting point of 216 °C.
Compound `C=CCNC(=O)N1CC(Sc2ccc(Cl)cc2)C1` has a melting point of 88 to 89 °C.
For `CSc1cc(C)nc(SC)c1NC(=O)CBr`, the melting point was 171 to 172 °C.
Work on `CCc1cc(Oc2cncc3sc(C(N)=O)cc23)ccc1Cl` yielded a melting point of 185 to 187 °C.
In the case of `c1ccc(CN2C(=NCCCn3ccnc3)c3cccc4cccc2c34)cc1`, the melting point is reported as 90 to 93 °C.
For `COc1cccc(-c2nn3c(c2C(=O)O)-c2ccccc2CC3)c1`, the melting point was 190 °C.
`Oc1cccc(Cc2ccc3ccccc3c2O)c1` showed a melting point of 100 to 101 °C.
With `N#CC1=C(Nc2ccc(F)cc2F)CCC1` the melting point was 116 to 119 °C.
`CC(C)c1ccccc1N1/C(=N\N=C/c2ccc(-c3ncn(-c4ccc(OC(F)(F)F)cc4)n3)cc2)SCC1(C)O` (stereo not drawn) gave a melting point of 114 to 116 °C.
In the case of `CCCCc1nc2c(N)nc3ccccc3c2n1CCCCON=C(C)C`, the melting point is reported as 115 to 117 °C.
Compound `N#CCCCCNc1ccc(O)cc1` has a melting point of 88 to 90 °C.
With `CSc1nc2ccnn2c(OCc2ccccc2)c1C#N` the melting point was 194 °C.
Work on `Cc1ccc(-c2csc(C(=O)O)n2)cc1` yielded a melting point of 112 to 114 °C.
With `COC(=O)C(c1ccccc1Cl)C1CNc2sc(OC(=O)c3ccc([N+](=O)[O-])cc3)cc2C1` (stereo not drawn) the melting point was 100 to 102 °C.
`NC(=O)c1cc([N+](=O)[O-])c(Oc2ccccc2)c(S(N)(=O)=O)c1` showed a melting point of 255 to 256 °C.
Work on `CON(C)C(=O)Nc1ccc(OCc2nc(Cl)ccc2Cl)cc1` yielded a melting point of 152 to 154 °C.
Work on `Cc1c(C(=O)C2CSC(c3cccnc3)N2)c2ccccc2n1C(=O)N(C)C` (stereo not drawn) yielded a melting point of 130 to 132 °C.
In the case of `CC(=O)c1ccc(S(=O)(=O)N(CCO)CCO)cc1`, the melting point is reported as 87.5 to 89.5 °C.
With `CCOC(=O)c1c(=O)c2c(F)c(F)c(F)c(F)c2n2ccccc12` the melting point was 198 to 200 °C.
For `O=S(=O)(c1ccccc1)c1cc2cc(Cl)ccc2[nH]1`, the melting point was 137 to 138 °C.
In the case of `Cc1csc2nc3ccc(C(F)(F)F)cc3n12`, the melting point is reported as 127 °C.
In the case of `COC(=O)c1ccc2nc(C)n(Cc3ccc(C=C4SC(=O)NC4=O)cc3Cl)c2n1`, the melting point is reported as > 300 °C.
For `COC(=O)c1cc2c(C)ccc(C)c2n1OC`, the melting point was 90 to 91 °C.
With `C#CC1(NC(=O)C(CCN2CCN(c3ccccc3OC)CC2)c2ccccc2)CCCCC1` (stereo not drawn) the melting point was 127 to 129 °C.
`CC(C)(C)c1cc(SCCOCC(=O)O)cc(C(C)(C)C)c1O` showed a melting point of 86 °C.
Work on `CCC(CC)Nc1cc(C)nc(Sc2c(C)cc(C)cc2C)c1C` yielded a melting point of 108 to 110 °C.
In the case of `CCOC(=O)CCCCCCC(NC(N)=O)C(=O)OCC` (stereo not drawn), the melting point is reported as 79 to 80 °C.
For `CCN(c1nc(C)cc(C(=O)c2ncc[nH]2)n1)c1ccc(C(C)C)cc1Br`, the melting point was 75 to 76 °C.
With `CC1(C)CCc2c(sc3cc(OS(=O)(=O)Cc4ccccc4OC(F)(F)F)ccc3c2=O)C1` the melting point was 249 °C.
With `O=C(CN1CCNCC1)Cn1c2ccc(Br)cc2c2cc(Br)ccc21` the melting point was 175 °C.
Compound `O=CNc1ncc(C#Cc2ccc(Cl)cc2)c(Sc2ccc(O)cc2)n1` has a melting point of 261 to 262 °C.
In the case of `COC1(c2cccc(OCc3ccc(-n4ccnc4C)cc3F)c2)CCOCC1`, the melting point is reported as 121 to 122 °C.
With `COc1ccc(-c2cc3nc(N4CCCCC4)c4ccccc4c3nn2)cc1` the melting point was 168 to 169 °C.
`Nc1ccc(-c2c(Cc3ccccc3)sc3ncnc(N)c23)cc1` showed a melting point of 208 to 210 °C.
`COC(=O)CCn1nc(-c2c(-c3ccccc3)nn3ccccc23)ccc1=O` gave a melting point of 133 to 134 °C.
Compound `CCOC(=O)C1=C(C)NC(C)=C(C(=O)OCC)C1c1ccccc1Br` has a melting point of 144 to 145 °C.
`N#Cc1ccc(-c2cc(Oc3cccc4ccc(N)nc34)ncn2)cc1` gave a melting point of 234 to 236 °C.
Work on `CCCCNS(=O)(=O)CC(O)C(O)C(CC1CCCCC1)NC(=O)c1cnccn1` (stereo not drawn) yielded a melting point of 178 to 180 °C.
Compound `Cc1ccc2cccc(OCc3c(Cl)ccc(N(C)C(=O)CN4C(=O)c5ccccc5C4=O)c3Cl)c2n1` has a melting point of 204 °C.
`O=C(c1ccc(-c2ccccc2)cc1)N1CCCCc2sccc21` showed a melting point of 164 to 166 °C.
With `CCCCCCCCN=C1SC(=CC(=O)O)C(=O)N1CCCCCCCC` the melting point was 57 to 61 °C.
With `Nc1nc(-c2cc(Cl)ccc2Cl)nc(N2CCCCC2C(=O)O)n1` (stereo not drawn) the melting point was 237 to 240 °C.
For `O=[N+]([O-])c1ccc(Cl)cc1Sc1cccc2cnccc12`, the melting point was 151 to 153 °C.
`Cc1cccc(-c2ccnc3ccnn23)n1` showed a melting point of 126 to 127 °C.
Compound `CC(=O)SCC(=Cc1cc(F)cc(F)c1)C(=O)NCCC(=O)OCc1ccccc1` has a melting point of 82 °C.
Work on `CC(C)(C)c1cc(N(C(=O)CCC(=O)O)c2ccccc2)cc(C(C)(C)C)c1O` yielded a melting point of 205 to 208 °C.
Compound `CCC(C(=O)N(C)C)n1ccc(-c2ccccc2Cl)n1` (stereo not drawn) has a melting point of 38.5 to 40 °C.
